Data published in PMC8164609 (Environmental Science and Pollution Research International, 2021).
Like-named read-outs stand apart in the source and are kept apart here.

Key:
[1] = biological target: T1, human ERα (Homo sapiens, UniProt P03372); assay: Yeast bioluminescent assay, S. cerevisiae BMAEREluc/ERα (ERE-luc reporter); type: cell-based; settings: S. cerevisiae BMAEREluc/ERα, about 2.5 h incubation, 5% EtOH vehicle; read-out: EC50 (estrogenic potency, luminescence)
T1 construct: expressed in transfected cells; host or cells: Saccharomyces cerevisiae BMAEREluc/ERα (recombinant yeast, gift of Dr. Johanna Rajasärkkä, University of Helsinki)
T1 sequence (P03372 1-595): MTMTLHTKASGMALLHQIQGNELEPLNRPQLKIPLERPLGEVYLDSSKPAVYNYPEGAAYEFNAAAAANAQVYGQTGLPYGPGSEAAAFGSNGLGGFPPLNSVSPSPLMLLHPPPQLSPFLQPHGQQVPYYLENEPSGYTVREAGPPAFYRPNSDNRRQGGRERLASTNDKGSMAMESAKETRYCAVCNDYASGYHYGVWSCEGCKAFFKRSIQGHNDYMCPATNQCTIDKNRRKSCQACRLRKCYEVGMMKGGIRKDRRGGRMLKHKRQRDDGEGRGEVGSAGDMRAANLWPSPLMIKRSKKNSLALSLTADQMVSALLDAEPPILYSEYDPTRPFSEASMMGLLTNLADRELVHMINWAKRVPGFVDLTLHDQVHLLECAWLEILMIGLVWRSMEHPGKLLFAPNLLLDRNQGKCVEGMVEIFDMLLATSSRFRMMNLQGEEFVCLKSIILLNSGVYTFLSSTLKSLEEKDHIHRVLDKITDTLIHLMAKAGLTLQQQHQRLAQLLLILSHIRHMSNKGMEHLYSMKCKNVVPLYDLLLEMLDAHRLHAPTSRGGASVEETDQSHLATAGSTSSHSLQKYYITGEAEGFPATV
Protocol: Yeast bioluminescent assay was performed as previously described (Omoruyi and Pohjanvirta [2018]). Two recombinant yeasts, Saccharomyces cerevisiae BMAEREluc/ERα and Saccharomyces cerevisiae BMA64/luc, were kindly provided by Dr. Johanna Rajasärkkä, Department of Food and Environmental Sciences, Faculty of Agriculture and Forestry, University of Helsinki. In the BMAEREluc/ERα, human ERα is expressed. After estrogen-like chemicals bind to ERα, the dimerized receptor binds to a specific DNA sequence called estrogen response element (ERE), in the promotor region of the luc reporter gene, inducing its expression. In BMA64/luc, the luciferase is expressed constitutively, and this strain can be used for the evaluation of cytotoxicity of test compounds. […]
Next, 90 μL of cultured yeasts containing 1:20 luciferin solution (0.042 g luciferin dissolved in 9.75 mL of 0.2 M trisodium citrate, and 5.525 mL of 0.2 M citrate, pH 5) was pipetted into every well of a white 96-well flat-bottom plate, and 10 μL of test compounds in a defined concentration range (diluted in 5% EtOH) were added. […] The luminescence measurement was performed with Luminoskan Ascent microplate luminometer (Thermo Labsystems) using the recommended settings as follows: 1000 ms integration time, single measurement mode, shaking at 60 rpm for 5 s prior to measurement. […]

[2] = tested on: S. cerevisiae BMA64/luc; settings: values higher than 2 are considered toxic
Protocol: Yeast bioluminescent assay was performed as previously described (Omoruyi and Pohjanvirta [2018]). Two recombinant yeasts, Saccharomyces cerevisiae BMAEREluc/ERα and Saccharomyces cerevisiae BMA64/luc, were kindly provided by Dr. Johanna Rajasärkkä, Department of Food and Environmental Sciences, Faculty of Agriculture and Forestry, University of Helsinki. In the BMAEREluc/ERα, human ERα is expressed. After estrogen-like chemicals bind to ERα, the dimerized receptor binds to a specific DNA sequence called estrogen response element (ERE), in the promotor region of the luc reporter gene, inducing its expression. In BMA64/luc, the luciferase is expressed constitutively, and this strain can be used for the evaluation of cytotoxicity of test compounds.
Both strains were revived from glycerol stock solution on agar and broth forms of synthetic complete medium supplemented with the required amino acids. After the absence of contamination was confirmed by observing single colonies’ morphology on agar plate, approximately 10 μL of cultured yeasts in broth was transferred to 4 mL of synthetic defined (SD) medium supplemented with the required amino acids. The culture was incubated at 30°C on a shaker incubator (200 rpm). After 24-h incubation, the culture was diluted with SD broth to reach the optimal density (OD600) of 0.4 CFU/mL. Subsequently, the culture was incubated in the same incubation condition until the OD600 reached 0.6–0.7 CFU/mL.
Next, 90 μL of cultured yeasts containing 1:20 luciferin solution (0.042 g luciferin dissolved in 9.75 mL of 0.2 M trisodium citrate, and 5.525 mL of 0.2 M citrate, pH 5) was pipetted into every well of a white 96-well flat-bottom plate, and 10 μL of test compounds in a defined concentration range (diluted in 5% EtOH) were added. The plate was incubated at 30°C for approximately 2.5 h, and was then shaken briefly. The luminescence measurement was performed with Luminoskan Ascent microplate luminometer (Thermo Labsystems) using the recommended settings as follows: 1000 ms integration time, single measurement mode, shaking at 60 rpm for 5 s prior to measurement.
Each concentration of test compounds and controls in the assay was tested in triplicate, and the experiment was performed twice.
* The Correction Factor is the luminescence of the strain BMA64/luc with blank solvent divided by the luminescence of the control strain with the sample. Values higher than 2 are considered toxic (Leskinen et al. 2005).
* The Correction Factor is the luminescence of the strain BMA64/luc with blank solvent divided by the luminescence of the control strain with the sample. Values higher than 2 are considered toxic (Leskinen et al. 2005). […] Each experiment was performed in triplicate.

[3] = Estimated human serum concentration from dietary exposure; settings: 7.3 mg/kg body weight/day as bolus, 2% absorbed, even distribution, maximum reduced by 50%
Protocol: Tartrazine has been classified as a xenoestrogen that can bind to ERα in the MCF-7 cell line (Axon et al. [2012]). […] This raises the question whether tartrazine could create any estrogenic effect in humans at its prevailing serum concentrations. Based on the data published by EFSA, the 95th or 97.5th percentile exposure levels for human is 7.3 mg/kg body weight/day (EFSA [2009]).

Compound: O=C([O-])C1=NN(c2ccc(S(=O)(=O)[O-])cc2)C(=O)C1N=Nc1ccc(S(=O)(=O)[O-])cc1.[Na+].[Na+].[Na+] (centres unmarked) [tartrazine]
- EC50 [1]: 0.1 nM
- Correction Factor ([2]; 5% DMSO, 10^−4 M): 3.05±0.70
- Correction Factor ([2]; 5% DMSO, 10^−6 M): 2.77±0.44
- Correction Factor ([2]; 5% DMSO, 10^−8 M): 2.05±0.32
- Correction Factor ([2]; 5% DMSO, 10^−10 M): 2.60±0.54
- Correction Factor ([2]; 5% DMSO, 10^−12 M): 3.09±0.57
- Correction Factor ([2]; 5% DMSO, 10^−14 M): 3.43±0.66
- Correction Factor ([2]; 5% ethanol, 10^−4 M): 0.99±0.08
- Correction Factor ([2]; 5% ethanol, 10^−6 M): 0.94±0.12
- Correction Factor ([2]; 5% ethanol, 10^−8 M): 0.95±0.09
- Correction Factor ([2]; 5% ethanol, 10^−10 M): 1.36±0.30
- Correction Factor ([2]; 5% ethanol, 10^−12 M): 1.10±0.26
- Correction Factor ([2]; 5% ethanol, 10^−14 M): 1.14±0.23
- estimated serum concentration [3]: 137 nM
